“And” between values parts separate entries of the source, which are not always exact repeats. Equal entries are not always repeated. Where two headings read alike, the source gives them in different places. Where only a bound is given, the exact number is not on record here.

Holding throughout (test): cell-based
One assay concerns the target hNav1.5 (Homo sapiens, UniProt Q14524). The following applies: read-out: IC50 (μM) Nav1.5.
Assay [1] has as its target T1, hNav1.7 (Homo sapiens, UniProt Q15858). In kind it is cell-based. The following applies: ratio of PX tonic IC50 values; Table 11.
In the next assay the target is hNav1.4 (Homo sapiens, UniProt P35499). In kind it is cell-based. The following applies: for IC50: read-out: IC50 (μM) Nav1.4; for Nav1.4/Nav1.7: ratio of IonWorks Quattro IC50 values.
Sequence of hNav1.4 (P35499 whole entry): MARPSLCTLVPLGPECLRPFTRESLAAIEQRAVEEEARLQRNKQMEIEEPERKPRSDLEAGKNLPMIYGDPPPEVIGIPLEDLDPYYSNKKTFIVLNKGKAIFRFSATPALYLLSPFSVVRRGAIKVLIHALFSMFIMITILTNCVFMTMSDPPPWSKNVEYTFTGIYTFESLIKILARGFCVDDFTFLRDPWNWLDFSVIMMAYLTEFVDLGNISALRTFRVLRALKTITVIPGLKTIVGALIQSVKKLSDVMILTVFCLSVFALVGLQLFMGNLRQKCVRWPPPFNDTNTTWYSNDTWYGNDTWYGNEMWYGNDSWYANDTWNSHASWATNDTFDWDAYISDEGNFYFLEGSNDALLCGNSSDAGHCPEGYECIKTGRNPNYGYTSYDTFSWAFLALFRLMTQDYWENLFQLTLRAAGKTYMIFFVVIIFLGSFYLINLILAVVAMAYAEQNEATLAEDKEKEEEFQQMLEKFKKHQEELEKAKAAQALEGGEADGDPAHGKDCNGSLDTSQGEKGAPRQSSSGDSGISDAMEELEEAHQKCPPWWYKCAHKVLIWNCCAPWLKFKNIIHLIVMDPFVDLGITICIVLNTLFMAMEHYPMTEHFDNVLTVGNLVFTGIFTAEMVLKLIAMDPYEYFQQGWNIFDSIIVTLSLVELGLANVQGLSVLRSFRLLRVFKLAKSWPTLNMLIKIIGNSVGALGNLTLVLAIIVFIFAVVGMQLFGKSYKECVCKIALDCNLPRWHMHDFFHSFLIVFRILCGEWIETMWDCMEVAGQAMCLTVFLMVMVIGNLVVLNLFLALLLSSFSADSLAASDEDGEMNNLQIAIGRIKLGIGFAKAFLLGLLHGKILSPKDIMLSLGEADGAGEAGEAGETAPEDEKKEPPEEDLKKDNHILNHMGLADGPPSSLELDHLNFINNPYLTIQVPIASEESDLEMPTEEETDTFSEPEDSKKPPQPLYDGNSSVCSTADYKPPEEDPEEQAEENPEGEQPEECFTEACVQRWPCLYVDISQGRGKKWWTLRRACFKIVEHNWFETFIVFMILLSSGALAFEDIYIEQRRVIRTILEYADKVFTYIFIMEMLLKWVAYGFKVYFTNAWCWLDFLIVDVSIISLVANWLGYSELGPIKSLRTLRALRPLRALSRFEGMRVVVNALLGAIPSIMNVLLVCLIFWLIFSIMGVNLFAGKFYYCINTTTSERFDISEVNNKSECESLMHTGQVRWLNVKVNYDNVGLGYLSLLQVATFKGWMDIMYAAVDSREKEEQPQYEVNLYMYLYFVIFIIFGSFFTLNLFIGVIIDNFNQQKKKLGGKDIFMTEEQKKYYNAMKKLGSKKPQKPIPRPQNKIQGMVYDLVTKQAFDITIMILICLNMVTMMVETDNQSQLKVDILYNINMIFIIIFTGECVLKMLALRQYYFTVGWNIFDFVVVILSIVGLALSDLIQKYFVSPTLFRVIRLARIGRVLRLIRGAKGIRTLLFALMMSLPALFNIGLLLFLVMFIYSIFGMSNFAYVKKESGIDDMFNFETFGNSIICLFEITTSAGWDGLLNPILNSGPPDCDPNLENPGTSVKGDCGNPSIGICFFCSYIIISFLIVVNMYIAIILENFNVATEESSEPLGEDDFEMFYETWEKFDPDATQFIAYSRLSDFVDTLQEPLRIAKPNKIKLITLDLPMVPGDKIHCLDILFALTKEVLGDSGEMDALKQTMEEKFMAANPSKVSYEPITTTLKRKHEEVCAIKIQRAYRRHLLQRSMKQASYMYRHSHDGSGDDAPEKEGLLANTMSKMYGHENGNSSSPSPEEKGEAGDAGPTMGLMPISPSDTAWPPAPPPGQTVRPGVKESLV
The target in the next assay is hNav1.3 (Homo sapiens, UniProt Q9NY46). The following applies: read-out: IC50 (μM) Nav1.3.
The target of assay [2] is T1, hNav1.7. The following applies: for IC50: read-out: IC50 (μM) Nav1.7.

T1 sequence (Q15858 whole entry): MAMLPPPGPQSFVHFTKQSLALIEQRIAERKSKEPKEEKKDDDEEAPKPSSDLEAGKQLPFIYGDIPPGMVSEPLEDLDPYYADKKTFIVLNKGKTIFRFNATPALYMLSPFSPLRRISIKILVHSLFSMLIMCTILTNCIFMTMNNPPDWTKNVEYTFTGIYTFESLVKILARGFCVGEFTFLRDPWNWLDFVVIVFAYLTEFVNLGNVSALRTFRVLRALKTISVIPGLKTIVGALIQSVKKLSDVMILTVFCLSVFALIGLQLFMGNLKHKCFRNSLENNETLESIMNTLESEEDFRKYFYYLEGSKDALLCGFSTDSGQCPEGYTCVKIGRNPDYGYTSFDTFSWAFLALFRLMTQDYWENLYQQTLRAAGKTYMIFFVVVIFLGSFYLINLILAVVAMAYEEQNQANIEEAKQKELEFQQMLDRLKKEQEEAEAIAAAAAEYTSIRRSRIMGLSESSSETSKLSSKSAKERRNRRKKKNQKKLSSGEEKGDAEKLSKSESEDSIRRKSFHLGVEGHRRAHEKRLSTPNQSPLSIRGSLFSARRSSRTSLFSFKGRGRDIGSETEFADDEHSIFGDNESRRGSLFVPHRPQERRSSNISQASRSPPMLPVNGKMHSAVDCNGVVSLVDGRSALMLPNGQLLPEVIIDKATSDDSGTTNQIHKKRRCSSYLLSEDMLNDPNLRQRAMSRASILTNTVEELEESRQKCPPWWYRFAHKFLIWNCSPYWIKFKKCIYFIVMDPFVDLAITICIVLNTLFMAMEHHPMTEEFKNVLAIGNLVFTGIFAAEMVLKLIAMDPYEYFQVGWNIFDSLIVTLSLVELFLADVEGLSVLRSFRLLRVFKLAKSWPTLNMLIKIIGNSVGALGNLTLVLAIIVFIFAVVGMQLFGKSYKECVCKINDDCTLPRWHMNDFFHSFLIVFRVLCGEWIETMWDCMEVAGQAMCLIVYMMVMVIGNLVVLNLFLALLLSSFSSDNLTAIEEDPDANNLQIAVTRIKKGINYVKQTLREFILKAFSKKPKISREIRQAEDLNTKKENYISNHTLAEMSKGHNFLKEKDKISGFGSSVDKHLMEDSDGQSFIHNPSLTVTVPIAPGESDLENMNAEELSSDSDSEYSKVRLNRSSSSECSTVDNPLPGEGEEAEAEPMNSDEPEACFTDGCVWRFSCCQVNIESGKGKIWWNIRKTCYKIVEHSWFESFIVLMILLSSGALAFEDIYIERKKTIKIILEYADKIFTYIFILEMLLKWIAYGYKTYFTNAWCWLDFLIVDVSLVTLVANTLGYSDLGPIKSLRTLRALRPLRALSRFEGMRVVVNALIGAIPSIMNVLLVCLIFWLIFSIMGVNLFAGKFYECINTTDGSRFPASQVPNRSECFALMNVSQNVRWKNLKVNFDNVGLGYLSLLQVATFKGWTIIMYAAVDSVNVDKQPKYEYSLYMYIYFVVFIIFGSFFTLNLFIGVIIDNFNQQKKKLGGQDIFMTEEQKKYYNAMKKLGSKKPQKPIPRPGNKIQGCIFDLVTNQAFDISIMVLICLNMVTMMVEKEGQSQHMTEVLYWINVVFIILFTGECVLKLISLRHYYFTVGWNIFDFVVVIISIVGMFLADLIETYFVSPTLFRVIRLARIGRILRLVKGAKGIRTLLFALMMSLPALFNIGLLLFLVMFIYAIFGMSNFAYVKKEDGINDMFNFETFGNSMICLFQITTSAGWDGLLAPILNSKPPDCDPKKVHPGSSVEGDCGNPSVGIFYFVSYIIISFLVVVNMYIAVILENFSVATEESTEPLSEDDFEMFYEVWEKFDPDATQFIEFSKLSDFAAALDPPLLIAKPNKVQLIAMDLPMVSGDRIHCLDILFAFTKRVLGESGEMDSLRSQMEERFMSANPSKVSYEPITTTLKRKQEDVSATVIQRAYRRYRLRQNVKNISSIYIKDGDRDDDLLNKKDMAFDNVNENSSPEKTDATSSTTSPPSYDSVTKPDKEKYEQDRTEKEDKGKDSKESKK

As a reminder, the IC50 is the midpoint of a concentration-inhibition curve. As for `CC[C@H](C)[C@H](NC(=O)[C@@H](NC(=O)[C@H](CCCCN)NC(=O)[C@H](CCCNC(=N)N)NC(=O)[C@@H]1CSSC[C@@H]2NC(=O)[C@H](C)NC(=O)[C@H](CCCNC(=N)N)NC(=O)[C@H](CCCCN)NC(=O)[C@H](CO)NC(=O)[C@H](CC(=O)O)NC(=O)[C@@H]3CSSC[C@H](NC(=O)[C@H](C)NC(=O)[C@H](CC(C)C)NC(=O)CNC(=O)[C@H](CCC(=O)O)NC(=O)[C@H](CSSC[C@H](NC(=O)[C@@H](N)Cc4ccc(O)cc4)C(=O)N[C@@H](CCC(N)=O)C(=O)N[C@@H](CCCCN)C(=O)N[C@@H](Cc4c[nH]c5ccccc45)C(=O)N[C@@H](CCSC)C(=O)N[C@@H](Cc4c[nH]c5ccccc45)C(=O)N[C@@H]([C@@H](C)O)C(=O)N3)NC2=O)C(=O)N[C@@H](CCCCN)C(=O)N[C@@H](CC(C)C)C(=O)N[C@@H](Cc2c[nH]c3ccccc23)C(=O)N1)[C@@H](C)CC)C(N)=O` [compound 17], the half-maximal inhibitory concentration (IC50) on hNav1.5 (IonWorks Quattro, Table 6) was more than 5 µM; on hNav1.4 (IonWorks Quattro, Table 6), 0.42 µM; on hNav1.3 (IonWorks Quattro, Table 6), 0.26 µM; on hNav1.7 [2] it was 0.009 µM. In addition, the values for the Nav1.4/Nav1.7 at hNav1.7 [1] and on hNav1.4 (Table 6) were 8 and 46, respectively. On hNav1.7 [1], the Nav1.5/Nav1.7 is listed as 229.
As for `CC[C@H](C)[C@H](NC(=O)[C@@H](NC(=O)[C@H](CCCCN)NC(=O)[C@H](CCCNC(=N)N)NC(=O)[C@@H]1CSSC[C@@H]2NC(=O)[C@H](C)NC(=O)[C@H](CCCNC(=N)N)NC(=O)[C@H](CCCCN)NC(=O)[C@H](CO)NC(=O)[C@H](CC(=O)O)NC(=O)[C@@H]3CSSC[C@H](NC(=O)[C@H](CCCNC(=N)N)NC(=O)[C@H](CC(C)C)NC(=O)CNC(=O)[C@H](CCC(=O)O)NC(=O)[C@H](CSSC[C@H](NC(=O)[C@@H](N)Cc4ccc(O)cc4)C(=O)N[C@@H](CCC(N)=O)C(=O)N[C@@H](CCCCN)C(=O)N[C@@H](Cc4c[nH]c5ccccc45)C(=O)N[C@@H](CCSC)C(=O)N[C@@H](Cc4cccc5ccccc45)C(=O)N[C@@H]([C@@H](C)O)C(=O)N3)NC2=O)C(=O)N[C@@H](CCCCN)C(=O)N[C@@H](CC(C)C)C(=O)N[C@@H](Cc2c[nH]c3ccccc23)C(=O)N1)[C@@H](C)CC)C(N)=O` [compound 30], the IC50 was found to be 3.6 µM at hNav1.5 (IonWorks Quattro, Table 6); 0.12 µM on hNav1.4 (IonWorks Quattro, Table 6); 0.1 µM on hNav1.3 (IonWorks Quattro, Table 6); 0.013 µM at hNav1.7 [2]. The values for the Nav1.4/Nav1.7 on hNav1.7 [1] and on hNav1.4 (Table 6) were 2 and 9, respectively. Moreover, the Nav1.5/Nav1.7 on hNav1.7 [1] amounted to 3550.
Consider `CC[C@H](C)[C@H](NC(=O)[C@@H](NC(=O)[C@H](CCCCN)NC(=O)[C@H](CCCNC(=N)N)NC(=O)[C@@H]1CSSC[C@@H]2NC(=O)[C@H](C)NC(=O)[C@H](CCCNC(=N)N)NC(=O)[C@H](CCCCN)NC(=O)[C@H](CO)NC(=O)[C@H](CC(=O)O)NC(=O)[C@@H]3CSSC[C@H](NC(=O)[C@H](CCCNC(=N)N)NC(=O)[C@H](CC(C)C)NC(=O)CNC(=O)[C@H](CCC(=O)O)NC(=O)[C@H](CSSC[C@H](NC(=O)[C@@H](N)CCC(=O)O)C(=O)N[C@@H](CCC(N)=O)C(=O)N[C@@H](CCCCN)C(=O)N[C@@H](Cc4c[nH]c5ccccc45)C(=O)N[C@@H](CCSC)C(=O)N[C@@H](Cc4c[nH]c5ccccc45)C(=O)N[C@@H]([C@@H](C)O)C(=O)N3)NC2=O)C(=O)N[C@@H](CCCCN)C(=O)N[C@@H](CC(C)C)C(=O)N[C@@H](Cc2c[nH]c3ccccc23)C(=O)N1)[C@@H](C)CC)C(N)=O` [compound 49], for which the IC50 on hNav1.5 (IonWorks Quattro, Table 6) is more than 5 µM; on hNav1.4 (IonWorks Quattro, Table 6), 0.23 µM; on hNav1.3 (IonWorks Quattro, Table 6), 0.16 µM; on hNav1.7 [2], 0.018 µM. The Nav1.4/Nav1.7 on hNav1.7 [1] came to 27; on hNav1.4 (Table 6), 13. The Nav1.5/Nav1.7 at hNav1.7 [1] is given as 21467.
With `CC[C@H](NC(=O)[C@H](CCCCN)NC(=O)[C@H](CCCNC(=N)N)NC(=O)[C@@H]1CSSC[C@@H]2NC(=O)[C@H](C)NC(=O)[C@H](CCCNC(=N)N)NC(=O)[C@H](CCCCN)NC(=O)[C@H](CO)NC(=O)[C@H](CC(=O)O)NC(=O)[C@@H]3CSSC[C@H](NC(=O)[C@H](CCC(=O)O)NC(=O)[C@H](CC(C)C)NC(=O)CNC(=O)[C@H](CCC(=O)O)NC(=O)[C@H](CSSC[C@H](NC(=O)[C@@H](N)Cc4ccc(O)cc4)C(=O)N[C@@H](CCC(N)=O)C(=O)N[C@@H](CCCCN)C(=O)N[C@@H](Cc4c[nH]c5ccccc45)C(=O)N[C@@H](CCSC)C(=O)N[C@@H](Cc4c[nH]c5ccccc45)C(=O)N[C@@H]([C@@H](C)O)C(=O)N3)NC2=O)C(=O)N[C@@H](CCCCN)C(=O)N[C@@H](CC(C)C)C(=O)N[C@@H](Cc2c[nH]c3ccccc23)C(=O)N1)C(=O)N[C@H](C(N)=O)[C@@H](C)CC` [compound 130], the concentration for half-maximal inhibition (IC50) at hNav1.5 is 8.2 µM and 11.1 µM; on hNav1.4, more than 5 µM; at hNav1.3 it was more than 5 µM; at hNav1.7 [2], 0.17 µM and 0.21 µM. The Nav1.4/Nav1.7 on hNav1.7 [2] (ratio of IonWorks Quattro IC50 values, Nav1.4 over Nav1.7) is 29 and 24.
For `CCCC[C@@H]1NC(=O)[C@H](Cc2cn(CCCOCCOCCOCCOCCOCCOCCOCCOCCOCCOCCN)nn2)NC(=O)[C@H](CCCCN)NC(=O)[C@H](CCC(N)=O)NC(=O)[C@@H](NC(=O)[C@@H](N)Cc2ccc(O)cc2)CSSC[C@@H]2NC(=O)[C@@H]3CSSC[C@@H](C(=O)N[C@@H](CCCNC(=N)N)C(=O)N[C@@H](CCCCN)C(=O)N[C@H](C(=O)N[C@H](C(N)=O)[C@@H](C)CC)[C@@H](C)CC)NC(=O)[C@H](Cc4c[nH]c5ccccc45)NC(=O)[C@H](CC(C)C)NC(=O)[C@H](CCCCN)NC(=O)[C@H](CSSC[C@H](NC(=O)[C@H]([C@@H](C)O)NC(=O)[C@H](Cc4c[nH]c5ccccc45)NC1=O)C(=O)N[C@@H](CC(=O)O)C(=O)N[C@@H](CO)C(=O)N[C@@H](CCCCN)C(=O)N[C@@H](CCCNC(=N)N)C(=O)N[C@@H](C)C(=O)N3)NC(=O)[C@H](CCCNC(=N)N)NC(=O)[C@H](CC(C)C)NC(=O)CNC(=O)[C@H](CCC(=O)O)NC2=O` [compound 251], the IC50 at hNav1.5 (IonWorks Quattro, Table 9) was more than 7 µM; at hNav1.4 (IonWorks Quattro, Table 9), more than 7 µM; at hNav1.3 (IonWorks Quattro, Table 9), more than 7 µM; on hNav1.7 [2] (IonWorks Quattro, […]), more than 7 µM.
In the case of `CCCC[C@@H]1NC(=O)[C@H](Cc2c[nH]c3ccccc23)NC(=O)[C@H](CCCCN)NC(=O)[C@H](CCC(N)=O)NC(=O)[C@@H](NC(=O)[C@@H](N)Cc2ccc(O)cc2)CSSC[C@@H]2NC(=O)[C@@H]3CSSC[C@@H](C(=O)N[C@@H](CCCNC(=N)N)C(=O)N[C@@H](CCCCN)C(=O)N[C@H](C(=O)N[C@H](C(N)=O)[C@@H](C)CC)[C@@H](C)CC)NC(=O)[C@H](Cc4c[nH]c5ccccc45)NC(=O)[C@H](CC(C)C)NC(=O)[C@H](CCCCN)NC(=O)[C@H](CSSC[C@H](NC(=O)[C@H]([C@@H](C)O)NC(=O)[C@H](Cc4cn(CCCOCCOCCOCCOCCOCCOCCOCCOCCOCCOCCN)nn4)NC1=O)C(=O)N[C@@H](CC(=O)O)C(=O)N[C@@H](CO)C(=O)N[C@@H](CCCCN)C(=O)N[C@@H](CCCNC(=N)N)C(=O)N[C@@H](C)C(=O)N3)NC(=O)[C@H](CCCNC(=N)N)NC(=O)[C@H](CC(C)C)NC(=O)CNC(=O)[C@H](CCC(=O)O)NC2=O` [compound 253], the half-maximal inhibitory concentration (IC50) is more than 7 µM at hNav1.5 (IonWorks Quattro, Table 9); more than 7 µM on hNav1.4 (IonWorks Quattro, Table 9); more than 7 µM at hNav1.3 (IonWorks Quattro, Table 9); 4.6 µM on hNav1.7 [2] (IonWorks Quattro, […]).
Consider `CCCC[C@@H]1NC(=O)[C@H](Cc2c[nH]c3ccccc23)NC(=O)[C@H](CCCCN)NC(=O)[C@H](CCC(N)=O)NC(=O)[C@@H](NC(=O)[C@@H](N)Cc2ccc(O)cc2)CSSC[C@@H]2NC(=O)[C@@H]3CSSC[C@@H](C(=O)N[C@@H](CCCNC(=N)N)C(=O)N[C@@H](CCCCN)C(=O)N[C@H](C(=O)N[C@H](C(N)=O)[C@@H](C)CC)[C@@H](C)CC)NC(=O)[C@H](Cc4c[nH]c5ccccc45)NC(=O)[C@H](CC(C)C)NC(=O)[C@H](Cc4cn(CCCOCCOCCOCCOCCOCCOCCOCCOCCOCCOCCN)nn4)NC(=O)[C@H](CSSC[C@H](NC(=O)[C@H]([C@@H](C)O)NC(=O)[C@H](Cc4c[nH]c5ccccc45)NC1=O)C(=O)N[C@@H](CC(=O)O)C(=O)N[C@@H](CO)C(=O)N[C@@H](CCCCN)C(=O)N[C@@H](CCCNC(=N)N)C(=O)N[C@@H](C)C(=O)N3)NC(=O)[C@H](CCCNC(=N)N)NC(=O)[C@H](CC(C)C)NC(=O)CNC(=O)[C@H](CCC(=O)O)NC2=O` [compound 264], for which the 50% inhibitory concentration (IC50) is more than 7 µM at hNav1.5 (IonWorks Quattro, Table 9); more than 7 µM on hNav1.4 (IonWorks Quattro, Table 9); more than 7 µM at hNav1.3 (IonWorks Quattro, Table 9); more than 7 µM on hNav1.7 [2] (IonWorks Quattro, […]).
`CCCC[C@@H]1NC(=O)[C@H](Cc2c[nH]c3ccccc23)NC(=O)[C@H](CCCCN)NC(=O)[C@H](CCC(N)=O)NC(=O)[C@@H](NC(=O)[C@@H](N)Cc2ccc(O)cc2)CSSC[C@@H]2NC(=O)[C@@H]3CSSC[C@@H](C(=O)N[C@@H](CCCNC(=N)N)C(=O)N[C@@H](CCCCN)C(=O)N[C@H](C(=O)N[C@H](C(N)=O)[C@@H](C)CC)[C@@H](C)CC)NC(=O)[C@H](Cc4c[nH]c5ccccc45)NC(=O)[C@H](Cc4cn(CCCOCCOCCOCCOCCOCCOCCOCCOCCOCCOCCN)nn4)NC(=O)[C@H](CCCCN)NC(=O)[C@H](CSSC[C@H](NC(=O)[C@H]([C@@H](C)O)NC(=O)[C@H](Cc4c[nH]c5ccccc45)NC1=O)C(=O)N[C@@H](CC(=O)O)C(=O)N[C@@H](CO)C(=O)N[C@@H](CCCCN)C(=O)N[C@@H](CCCNC(=N)N)C(=O)N[C@@H](C)C(=O)N3)NC(=O)[C@H](CCCNC(=N)N)NC(=O)[C@H](CC(C)C)NC(=O)CNC(=O)[C@H](CCC(=O)O)NC2=O` [compound 265]: the IC50 on hNav1.5 (IonWorks Quattro, Table 9) is more than 7 µM; on hNav1.4 (IonWorks Quattro, Table 9), more than 7 µM; on hNav1.3 (IonWorks Quattro, Table 9) it was 5.6 µM; on hNav1.7 [2] (IonWorks Quattro, […]), 4.8 µM.

The values are drawn from patent publication US10344060B2 (priority 2013, dated 2019).
